Source: publication PMC8855934 (Journal of medicinal chemistry, 2021)
Changes are numbered by the printed parent chain.

Tests used:
[1] = Oral exposures in mice; assay type: in vivo; details: oral gavage, non-tumor-bearing male mice (Table S1)
[2] = Pharmacokinetics in mice; assay type: in vivo; details: male, mouse, iv, 1 mg/kg
[3] = target: T1, AR T878A mutant protein (Homo sapiens, UniProt P10275, T878A); details: LNCaP, 1 h
T1 sequence (P10275 1-920 T878A): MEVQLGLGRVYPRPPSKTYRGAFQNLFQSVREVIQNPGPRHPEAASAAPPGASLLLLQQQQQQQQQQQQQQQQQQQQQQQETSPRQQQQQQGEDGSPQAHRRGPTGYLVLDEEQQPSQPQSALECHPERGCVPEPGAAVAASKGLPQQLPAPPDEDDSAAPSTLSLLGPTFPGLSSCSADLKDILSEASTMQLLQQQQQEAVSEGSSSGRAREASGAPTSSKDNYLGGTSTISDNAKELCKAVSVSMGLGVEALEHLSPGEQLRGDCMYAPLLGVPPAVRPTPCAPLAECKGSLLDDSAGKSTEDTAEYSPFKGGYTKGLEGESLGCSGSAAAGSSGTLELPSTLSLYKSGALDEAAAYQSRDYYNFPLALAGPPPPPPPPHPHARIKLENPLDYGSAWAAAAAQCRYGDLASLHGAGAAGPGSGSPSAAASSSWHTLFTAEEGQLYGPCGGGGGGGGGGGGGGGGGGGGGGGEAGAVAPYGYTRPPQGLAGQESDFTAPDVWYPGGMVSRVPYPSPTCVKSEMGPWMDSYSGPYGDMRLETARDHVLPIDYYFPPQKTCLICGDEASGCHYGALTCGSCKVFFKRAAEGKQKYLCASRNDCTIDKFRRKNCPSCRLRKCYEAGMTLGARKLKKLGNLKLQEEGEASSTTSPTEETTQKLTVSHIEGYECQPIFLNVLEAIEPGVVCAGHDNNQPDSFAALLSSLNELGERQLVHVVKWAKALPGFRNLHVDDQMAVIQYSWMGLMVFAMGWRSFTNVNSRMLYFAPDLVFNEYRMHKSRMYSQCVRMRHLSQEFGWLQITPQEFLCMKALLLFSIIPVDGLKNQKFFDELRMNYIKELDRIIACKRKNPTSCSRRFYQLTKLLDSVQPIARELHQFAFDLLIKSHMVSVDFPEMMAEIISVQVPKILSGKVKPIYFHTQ

[4] = target: T2, AR protein (Homo sapiens, UniProt P10275); experiment: AR degradation in VCaP cell line; assay type: cell-based; details: for reduction of AR protein level (degradation kinetics) / Dmax: VCaP; for reduction of AR protein level (degradation kinetics): 1 h; for Dmax: read-out: Dmax, AR degradation in VCaP cell line, VCaP cell line, 24 h treatment, Western blotting
T2 sequence (P10275 1-920): T1 sequence (P10275 1-920 T878A) with A878T

[5] = target: T2, AR protein; details: single oral administration 20 mg/kg, 6 and 24 h time-points, Western blotting

With `N#Cc1ccc(O[C@H]2CC[C@H](NC(=O)c3ccc(NCCCNc4ccc5c(c4)C(=O)N(C4CCC(=O)NC4=O)C5=O)cc3)CC2)cc1Cl` (stereo partly drawn) [Compound 11, N-((1R,4R)-4-(3-Chloro-4-cyanophenoxy)cyclohexyl)-4-((3-((2-(2,6-dioxopiperidin-3-yl)-1,3-dioxoisoindolin-5-yl)amino)propyl)-amino)benzamide] the “oral exposures in mice” value [1] was “very low”.
With `N#Cc1ccc(O[C@H]2CC[C@H](NC(=O)c3ccc(N4CCC(N5CCN(c6ccc7c(c6)C(=O)N(C6CCC(=O)NC6=O)C7=O)CC5)CC4)cc3)CC2)cc1Cl` (stereo partly drawn) [Compound 26, N-(1R,4R)-4-((3-Chloro-4-cyanophenoxy)cyclohexyl)-4-(4-(4-(2-(2,6-dioxopiperidin-3-yl)-1,3-dioxoisoindolin-5-yl)piperazin-1-yl)-piperidin-1-yl)benzamide] the clearance ([2]; plasma) was 6.67 mL/min/kg, the “reduction of AR protein level (degradation kinetics)” value (from here on “reduction … (degradation kinetics)”) [3] was “effectively reduce” and the “reduction … (degradation kinetics)” value [4] was “effectively reduce”.
For `N#Cc1ccc(O[C@H]2CC[C@H](NC(=O)c3ccc(N4CCN(CC5CN(c6ccc7c(c6)C(=O)N(C6CCC(=O)NC6=O)C7=O)C5)CC4)cc3)CC2)cc1Cl` (stereo partly drawn) [Compound 27, N-(1R,4R)-4-((3-Chloro-4-cyanophenoxy)cyclohexyl)-4-(4-((l-(2-(2,6-dioxopiperidin-3-yl)-1,3-dioxoisoindolin-5-yl)azetidin-3-yl)-methyl)piperazin-1-yl)benzamide], the “reduction … (degradation kinetics)” value [3] was “effectively reduce” and the “reduction … (degradation kinetics)” value [4] was “effectively reduce”.
In the case of `N#Cc1ccc(O[C@H]2CCC[C@H](NC(=O)c3ccc(N4CCC(N5CCN(c6ccc7c(c6)C(=O)N(C6CCC(=O)NC6=O)C7=O)CC5)CC4)cc3)CCC2)cc1Cl` (stereo partly drawn) [Compound 31, N-(1R,5R)-5-((3-Chloro-4-cyanophenoxy)cyclooctyl)-4-(4-(4-(2-(2,6-dioxopiperidin-3-yl)-1,3-dioxoisoindolin-5-yl)piperazin-1-yl)-piperidin-1-yl)benzamide], the “Dmax, AR degradation in VCaP cell line” value ([4]; VCaP cell line, 24 h treatment, Western blotting) is reported as 54%.
With `N#Cc1ccc(OC2CCN(C(=O)c3ccc(N4CCC(N5CCN(c6ccc7c(c6)C(=O)N(C6CCC(=O)NC6=O)C7=O)CC5)CC4)cc3)CC2)cc1Cl` (centres unmarked) [Compound 32, 2-Chloro-4-((1-(4-(4-(4-(2-(2,6-dioxopiperidin-3-yl)-1,3-dioxoisoindolin-5-yl)piperazin-1-yl)piperidin-1-yl)benzoyl)piperidin-4-yl)-oxy)benzonitrile] the “effect in reducing AR protein (in words)” value ([4]; VCaP cell line) was “little or no effect”.
For `N#Cc1ccc(O[C@@H]2CCCN(C(=O)c3ccc(N4CCC(N5CCN(c6ccc7c(c6)C(=O)N(C6CCC(=O)NC6=O)C7=O)CC5)CC4)cc3)CC2)cc1Cl` (some centres unmarked) [Compound 33], the “effect in reducing AR protein (in words)” value ([4]; VCaP cell line) was “little or no effect”.
Compound `CN(c1ccc(C#N)c(Cl)c1)[C@H]1CC[C@H](NC(=O)c2ccc(N3CCC(N4CCN(c5ccc6c(c5)C(=O)N(C5CCC(=O)NC5=O)C6=O)CC4)CC3)cc2)CC1` (some centres unmarked) [Compound 35] has a clearance ([2]; plasma) of 5 mL/min/kg.
With `CN(c1ccc(C#N)c(Cl)c1)[C@H]1CC[C@H](NC(=O)c2ccc(N3CCC(CN4CCN(c5ccc6c(c5)C(=O)N(C5CCC(=O)NC5=O)C6=O)CC4)CC3)cc2)CC1` (stereo partly drawn) [Compound 40, N-(1R,4R)-4-(((3-Chloro-4-cyanophenyl)(methyl)amino)-cyclohexyl)-4-(4-((4-(2-(2,6-dioxopiperidin-3-yl)-1,3-dioxoisoindolin-5-yl)piperazin-1-yl)methyl)piperidin-1-yl)benzamide] the “reduction … (degradation kinetics)” value [3] was “effectively reduce” and the “reduction … (degradation kinetics)” value [4] was “effectively reduce”.
With `CN(c1ccc(C#N)c(Cl)c1)[C@H]1CC[C@H](NC(=O)c2ccc(N3CCN(C4CCN(c5ccc6c(c5)C(=O)N(C5CCC(=O)NC5=O)C6=O)CC4)CC3)cc2)CC1` (stereo partly drawn) [Compound 41, N-(1R,4R)-4-(((3-Chloro-4-cyanophenyl)(methyl)amino)-cyclohexyl)-4-(4-(1-(2-(2,6-dioxopiperidin-3-yl)-1,3-dioxoisoindolin-5-yl)piperidin-4-yl)piperazin-1-yl)benzamide] the “reduction of AR protein level in VCaP tumor tissue” value [5] was “effective”, the “reduction … (degradation kinetics)” value [3] was “effectively reduce” and the “reduction … (degradation kinetics)” value [4] was “effectively reduce”.
In the case of `CN(c1ccc(C#N)c(Cl)c1)[C@H]1CC[C@H](NC(=O)c2ccc(N3CC(CN4CCN(c5ccc6c(c5)C(=O)N(C5CCC(=O)NC5=O)C6=O)CC4)C3)cc2)CC1` (stereo partly drawn) [Compound 44, N-(1R,4R)-4-(((3-Chloro-4-cyanophenyl)(methyl)amino)-cyclohexyl)-4-(3-((4-(2-(2,6-dioxopiperidin-3-yl)-1,3-dioxoisoindolin-5-yl)piperazin-1-yl)methyl)azetidin-1-yl)benzamide], the “reduction … (degradation kinetics)” value [3] is reported as “effectively reduce” and the “reduction … (degradation kinetics)” value [4] is reported as “effectively reduce”.
In the case of `CN(c1ccc(C#N)c(Cl)c1)[C@H]1CC[C@H](NC(=O)c2ccc(N3CC(N4CCN(c5ccc6c(c5)C(=O)N(C5CCC(=O)NC5=O)C6=O)CC4)C3)cc2)CC1` (stereo partly drawn) [Compound 45, N-(1R,4R)-4-(((3-Chloro-4-cyanophenyl)(methyl)amino)-cyclohexyl)-4-(3-(4-(2-(2,6-dioxopiperidin-3-yl)-1,3-dioxoisoindolin-5-yl)piperazin-1-yl)azetidin-1-yl)benzamide], the “reduction of AR protein level in VCaP tumor tissue” value [5] is reported as “effective”, the Vd ([2]; in vivo) is reported as 1.8 to 2.1 L/kg and the clearance ([2]; in vivo) is reported as 3.33 to 5 mL/min/kg. For the same compound, the half-life ([2]; in vivo) was 5.5 to 7.5 h, the clearance ([2]; plasma) was 3.33 mL/min/kg and the “reduction … (degradation kinetics)” value [3] was “effectively reduce”. For the same compound, the “reduction … (degradation kinetics)” value [4] was “effectively reduce”.
In the case of `CC(O)(CS(=O)(=O)c1ccc(N2CCN(C3CCN(c4ccc5c(c4)C(=O)N(C4CCC(=O)NC4=O)C5=O)CC3)CC2)cc1)C(=O)Nc1ccc(C#N)c(C(F)(F)F)c1` (centres unmarked) [Compound 46, N-(4-Cyano-3-(trifluoromethyl)phenyl)-3-((4-(4-(1-(2-(2,6-dioxopiperidin-3-yl)-1,3-dioxoisoindolin-5-yl)piperidin-4-yl)piperazin-1-yl)phenyl)sulfonyl)-2-hydroxy-2-methylpropanamide], the Dmax [4] is reported as < 32%.
With `N#Cc1ncc(N2C(=O)C3(CCC3)N(c3ccc(C(=O)N4CCN(C5CCN(c6ccc7c(c6)C(=O)N(C6CCC(=O)NC6=O)C7=O)CC5)CC4)c(F)c3)C2=S)cc1C(F)(F)F` (centres unmarked) [Compound 48, 5-(5-(4-(4-(1-(2-(2,6-Dioxopiperidin-3-yl)-1,3-dioxoisoindolin-5-yl)piperidin-4-yl)piperazine-1-carbonyl)-3-fluorophenyl)-8-oxo-6-thioxo-5,7-diazaspiro[3.4]octan-7-yl)-3-(trifluoromethyl)-picolinonitrile] the Dmax [4] was < 32%.
